For assay [1], the system named is Cutibacterium acnes (ATCC 6919). As to the kind of experiment: Antibacterial assay (MIC, broth microdilution, Presto Blue). To be noted: ATCC6919, C. acnes ATCC 6919, 72 hours, anaerobic, read-out: minimum inhibitory concentration (MIC). It is filed as cell-based. How it is done: The ethanolic extract of Plectranthus […] tested against Cutibacterium acnes (ATCC 6919). The C. acnes bacteria was cultured from a Kwik-Stick on mouse heart and brain agar and then incubated at 37° C. for 72 hours under anaerobic conditions before the assay was done. The 72 hour old bacterial culture was dissolved in brain heart infusion broth and the suspension was adjusted to a 0.5 McFarland standard turbidity. This led to 10^5-10^6 colony forming units (CFU)/ml. In a sterile 96-well plate, 100 μl of the samples from the stock solution that consisted of the plant extracts (2 mg/ml dissolved in 10% dimethyl sulphoxide (DMSO)) and tetracycline the positive control (0.2 mg/ml) was diluted with broth. Twofold serial dilutions were done in broth over a range to give the concentrations 500-3.9 μg/ml for the plant extract and 50-0.3 μg/ml for tetracycline. To all the wells of the 96-well plate, 100 μl of bacterial suspension was added. The solvent control wells contained 2.5% DMSO with bacterial suspension and no plant samples and the negative control, bacterial suspension with no plant samples. The plates were incubated at 37° C. for 72 hours under anaerobic conditions.

Assay [2] has as its system COX-2 protein levels in HT-29 cells. Conditions: at 3.6 μg/ml; cited from earlier work.
Assay [3] can be described thus: DPPH radical scavenging assay. It is filed as biochemical. On the procedure:
The antioxidant activities of Plectranthus […] ethanolic extract was investigated using 1,1-Diphenyl-2-picrylhydrazyl (DPPH) free radical scavenging assay as described by Mavundza (Mavundza, 2010). To the top wells of a 96-well ELISA plate 200 μl of distilled water was added and to the remaining wells 110 μl of distilled water as a medium. Twenty microliters of plant extract and the controls was added to the first top wells that followed a double dilution. To each of the wells 90 μl of 90 μM DPPH ethanolic solution was added and left to incubate covered with aluminium foil for 30 minutes at room temperature. The final concentrations for the Plectranthus […] ethanolic extracts ranged from 3.9 to 500 μg/ml (Mavundza, 2010). […] The radical scavenging capacities of the extracts were determined by using a BIO-TEK Power Wave Multiwell plate reader ([…], South Africa) at 515 nm using KC Junior software (Highland Park, Winooski, Vermont, USA) to measure the disappearance of DPPH at 515 nm. The radical scavenging activity was determined as a percentage DPPH radical-scavenging that was calculated by the following equation, where AC is the absorbance of the control solution that only contains DPPH and AS is the absorbance of the plant sample in DPPH solution: % DPPH radical-scavenging=(AC-AS)/AC×100 […]

Assay [4] in a line: NO antioxidant (nitric oxide scavenging) assay. It is filed as biochemical.
For another assay, the target named is T1, MMP-9 enzyme (Homo sapiens, UniProt P14780).
T1 construct: purchased Enzo Life Sciences BML-AK410
T1 sequence (P14780 107-444 limits assumed): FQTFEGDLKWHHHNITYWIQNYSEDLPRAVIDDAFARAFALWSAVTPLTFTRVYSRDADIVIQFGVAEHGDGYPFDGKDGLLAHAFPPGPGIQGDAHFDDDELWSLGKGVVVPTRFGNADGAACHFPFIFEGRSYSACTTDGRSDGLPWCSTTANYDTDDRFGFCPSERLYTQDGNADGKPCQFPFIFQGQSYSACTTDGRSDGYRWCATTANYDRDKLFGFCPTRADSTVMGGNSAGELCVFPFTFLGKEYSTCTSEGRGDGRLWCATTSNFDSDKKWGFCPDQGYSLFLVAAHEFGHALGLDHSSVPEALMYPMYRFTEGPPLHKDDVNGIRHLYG
Kind of assay: Matrix metalloproteinase-9 assay (colorimetric kit). It is filed as biochemical. To be noted: at 0.411 μg/ml, single concentration. On the procedure: The MMP-9 Colorimetric Drug Discovery Kit (BML-AK410) from Enzo Life Sciences was used. The experiment was carried out as described in the instruction manual. The MMP chromogenic substrate (Ac-PLG-[2-mercapto-4-methyl-pentanoyl]-LG-OC2H5) and the inhibitor N-Isobutyl-N-(4-methoxyphenylsulfonyl)glycyl hydroxamic acid (NNGH) was thawed to room temperature. The inhibitor was diluted 1/200 in assay buffer (50 mM HEPES, 10 mM CaCl2, 0.05% Brij-35, 1 mM DTNB, pH 7.5) and warmed until 37° C. The substrate was diluted 1/25 in assay buffer to the required volume. The MMP-9 enzyme was diluted in assay buffer to 1/60 and warmed until 37° C. just before the assay. The plant extract was dissolved in dimethyl sulfoxide (DMSO) to a starting concentration of 2 mg/ml.
In the plant extract wells, 50 μl of plant extract and 90 μl of buffer was added to the first well of the 96 well plate (½ volume). To the rest of the plant extract wells, 70 μl of buffer was added and the plant extracts serially diluted. Assay buffer was plated in the rest of the relevant wells as follows: blank 90 μl, control 70 μl, and NNGH 50 μl. […] The plates were continuously read at A412nm by using a BIO-TEK Power Wave Multiwell plate reader (A.D.P., Weltevreden Park, South Africa) at one (1) minute intervals for twenty (20) minutes using KC Junior software (Highland Park, Winooski, Vermont, USA).

Values after ≈ are worked out from the molar mass of the structure shown.

Regarding `O=c1cc(-c2ccc(O)c(O)c2)oc2cc(O)cc(O)c12` [Luteolin], in assay [1], the MIC stood at 62.5 µg/mL (≈ 218 µM). As to `O=C(/C=C/c1ccc(O)c(O)c1)O[C@H](Cc1ccc(O)c(O)c1)C(=O)O` [rosmarinic acid], the “effect on COX-2 protein levels” value in assay [2] was “reduced COX-2 protein levels in HT-29 cells to levels comparable to that of the control cells”. For `O=C1O[C@H]([C@@H](O)CO)C(O)=C1O` [vitamin C, L-ascorbic acid], the “DPPH antioxidant activity IC50” value in assay [3] is 9.0 ± 2.0 µg/mL. For the same molecule, in assay [4], the “nitric oxide (NO) antioxidant activity IC50” value turned out to be 65.8 ± 5.9 µg/mL. At MMP-9 enzyme, `COc1ccc(S(=O)(=O)N(CC(=O)NO)CC(C)C)cc1` [positive control, N-Isobutyl-N-(4-methoxyphenylsulfonyl)glycyl hydroxamic acid] came in with an MMP-9 inhibition of 96%. Turning to `CN(C)[C@@H]1C(O)=C(C(N)=O)C(=O)[C@@]2(O)C(O)=C3C(=O)c4c(O)cccc4[C@@](C)(O)[C@H]3C[C@@H]12` [tetracycline], the MIC in assay [1] stood at 0.78 µg/mL (≈ 1.76 µM).

The values are drawn from US12097235B2, “Anti-acne pharmaceutical compositions” (priority 2018, dated 2024).
